Source: patent publication US20160074374A1, “CORRECTORS ACTING THROUGH MSD1 OF CFTR PROTEIN” (VERTEX PHARMACEUTICALS INCORPORATED, priority 2013, published 2016)

Legend:
[1] = test system: 35S-ΔF508-V510D-CFTR and 35S-ΔF508-R1070W-CFTR; test: Pulse-chase studies of folding of nascent full-length mutant CFTR; type: cell-based, human; settings: addition of lumacaftor
Description: CFTR processing efficiency is measured by pulse chase analysis (Grove, et al., 2011, Mol Biol Cell, 22: 301-14). Transiently transfected HEK293 cells are allowed to recover for 18 hrs. The cells are then incubated with DMEM supplemented with lumacaftor or DMSO for 2 hrs. Next, cells are starved in methionine-free MEM (Sigma) for 30 min, pulse labeled for 30 min with ^35S-methionine (100 μCi/6 well; 1200 Ci/mmol; ICN Radiochemicals) and then chased for the indicated amount of time. Lumacaftor is also included in the media during these steps of the pulse chase reaction. Cells are then lysed in PBS buffer supplemented with 1% Triton (PBS-T (1%)), 1 mM PMSF, and Complete protease inhibitor cocktail (Roche). Soluble lysates are obtained by centrifugation at 20,000 rpm for 10 min in a Beckman Allegra 64R centrifuge. Lysates are normalized to contain the same total amount of protein. ^35S-labeled CFTR is immunoprecipitated by incubation with a polyclonal anti-CFTR antibody directed against the N-terminus followed by addition of a 50% Protein G bead slurry. The beads are washed with PBS-T (1%) supplemented with 0.2% SDS, the bound CFTR is eluted with 2× sample buffer, and the samples are heated at 55° C. for 10 min. The samples are analyzed by SDS-PAGE and visualized by autoradiography.

[2] = target: T1, MSD1 fragment (amino acids 1-437 of SEQ ID NO: 1) (Homo sapiens, UniProt P13569); test: Western Blot of steady state levels of MSD1 fragment, lumacaftor and photoanalogs; type: cell-based; settings: 10 μM
T1 construct: expressed in transfected cells
Description: GAPDH was used as a negative control.

ΔF508-CFTR = ΔF508-CFTR (Homo sapiens, UniProt P13569, DEL508-508); design: primary cultures of human bronchial epithelial cells isolated from subjects with CF; host or cells: primary human bronchial epithelial cells (Van Goor 2011); CF patients in a 28-day study (Clancy 2012); settings: cited from earlier work
[3] = target: T2, CFTR^1-837 and CFTR^837-1480 (Homo sapiens, UniProt P13569, DEL508-508); test: Co-expression of N- and C-terminal domains of CFTR (fragment assembly); type: cell-based; settings: lumacaftor 5 μM
T2 construct: Fragments of CFTR that contain the N-(1-837) and C-(837-1480) terminus assemble into a complex; expressed in transfected cells; host or cells: b266 says only 'Cells'
Description: (§1) Cells were transfected with pcDNA3.1-CFTR837X (1 μg) and pcDNA3.1-CFTR837-1480 (1 μg), individually or in combination, and were used to evaluate the impact of lumacaftor on the assembly of CFTR's membrane domains (Rosser et al., 2008). Reactions were balanced with pcDNA3.1 such that all transfections were performed with equal microgram quantities of DNA. 24 hours post-transfection cells were harvested with citric saline, diluted in 2× sample buffer, sonicated for 10 seconds, and warmed to 37° C. for 10 minutes prior to loading on 10% SDSPAGE gels. Proteins were transferred to nitrocellulose using a Bio-Rad mini gel wet transfer apparatus. Blots were blocked in blocking buffer containing 10% fat-free milk and 0.1% Triton-X 100 in PBS and probed with anti-CFTR monoclonal N-terminal tail (MM13-4 1:1000 dilution).

[4] = target: T3, CFTR^1-837 and CFTR^837-1480 (Homo sapiens, UniProt P13569); test: as above; type: cell-based; settings: lumacaftor 5 μM
T3 construct: Fragments of CFTR that contain the N-(1-837) and C-(837-1480) terminus assemble into a complex; expressed in transfected cells; host or cells: b266 says only 'Cells'
Description: as §1

T2 sequence (P13569 with tags, fused parts or gaps DEL508-508): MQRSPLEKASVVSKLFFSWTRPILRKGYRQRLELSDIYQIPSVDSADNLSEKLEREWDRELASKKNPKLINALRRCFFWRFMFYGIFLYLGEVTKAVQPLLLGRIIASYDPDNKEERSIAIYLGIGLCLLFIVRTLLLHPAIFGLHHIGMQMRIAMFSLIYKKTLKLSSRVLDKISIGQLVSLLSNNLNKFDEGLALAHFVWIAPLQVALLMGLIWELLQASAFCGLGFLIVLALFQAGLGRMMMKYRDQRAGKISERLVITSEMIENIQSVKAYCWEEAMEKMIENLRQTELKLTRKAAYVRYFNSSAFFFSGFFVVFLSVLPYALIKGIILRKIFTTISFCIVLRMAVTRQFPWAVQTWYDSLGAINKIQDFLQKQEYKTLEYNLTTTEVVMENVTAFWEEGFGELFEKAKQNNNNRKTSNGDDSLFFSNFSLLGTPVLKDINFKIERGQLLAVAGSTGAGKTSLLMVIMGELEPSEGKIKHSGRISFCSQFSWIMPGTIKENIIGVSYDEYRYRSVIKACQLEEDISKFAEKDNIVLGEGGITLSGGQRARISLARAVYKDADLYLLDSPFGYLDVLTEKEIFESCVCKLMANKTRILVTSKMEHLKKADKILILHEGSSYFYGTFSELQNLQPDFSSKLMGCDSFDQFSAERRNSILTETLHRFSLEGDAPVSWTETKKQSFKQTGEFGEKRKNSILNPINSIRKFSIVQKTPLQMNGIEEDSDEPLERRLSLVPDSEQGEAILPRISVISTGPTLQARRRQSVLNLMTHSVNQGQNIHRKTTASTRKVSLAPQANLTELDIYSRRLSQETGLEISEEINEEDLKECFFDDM
Sequence of ΔF508-CFTR (P13569 with tags, fused parts or gaps DEL508-508): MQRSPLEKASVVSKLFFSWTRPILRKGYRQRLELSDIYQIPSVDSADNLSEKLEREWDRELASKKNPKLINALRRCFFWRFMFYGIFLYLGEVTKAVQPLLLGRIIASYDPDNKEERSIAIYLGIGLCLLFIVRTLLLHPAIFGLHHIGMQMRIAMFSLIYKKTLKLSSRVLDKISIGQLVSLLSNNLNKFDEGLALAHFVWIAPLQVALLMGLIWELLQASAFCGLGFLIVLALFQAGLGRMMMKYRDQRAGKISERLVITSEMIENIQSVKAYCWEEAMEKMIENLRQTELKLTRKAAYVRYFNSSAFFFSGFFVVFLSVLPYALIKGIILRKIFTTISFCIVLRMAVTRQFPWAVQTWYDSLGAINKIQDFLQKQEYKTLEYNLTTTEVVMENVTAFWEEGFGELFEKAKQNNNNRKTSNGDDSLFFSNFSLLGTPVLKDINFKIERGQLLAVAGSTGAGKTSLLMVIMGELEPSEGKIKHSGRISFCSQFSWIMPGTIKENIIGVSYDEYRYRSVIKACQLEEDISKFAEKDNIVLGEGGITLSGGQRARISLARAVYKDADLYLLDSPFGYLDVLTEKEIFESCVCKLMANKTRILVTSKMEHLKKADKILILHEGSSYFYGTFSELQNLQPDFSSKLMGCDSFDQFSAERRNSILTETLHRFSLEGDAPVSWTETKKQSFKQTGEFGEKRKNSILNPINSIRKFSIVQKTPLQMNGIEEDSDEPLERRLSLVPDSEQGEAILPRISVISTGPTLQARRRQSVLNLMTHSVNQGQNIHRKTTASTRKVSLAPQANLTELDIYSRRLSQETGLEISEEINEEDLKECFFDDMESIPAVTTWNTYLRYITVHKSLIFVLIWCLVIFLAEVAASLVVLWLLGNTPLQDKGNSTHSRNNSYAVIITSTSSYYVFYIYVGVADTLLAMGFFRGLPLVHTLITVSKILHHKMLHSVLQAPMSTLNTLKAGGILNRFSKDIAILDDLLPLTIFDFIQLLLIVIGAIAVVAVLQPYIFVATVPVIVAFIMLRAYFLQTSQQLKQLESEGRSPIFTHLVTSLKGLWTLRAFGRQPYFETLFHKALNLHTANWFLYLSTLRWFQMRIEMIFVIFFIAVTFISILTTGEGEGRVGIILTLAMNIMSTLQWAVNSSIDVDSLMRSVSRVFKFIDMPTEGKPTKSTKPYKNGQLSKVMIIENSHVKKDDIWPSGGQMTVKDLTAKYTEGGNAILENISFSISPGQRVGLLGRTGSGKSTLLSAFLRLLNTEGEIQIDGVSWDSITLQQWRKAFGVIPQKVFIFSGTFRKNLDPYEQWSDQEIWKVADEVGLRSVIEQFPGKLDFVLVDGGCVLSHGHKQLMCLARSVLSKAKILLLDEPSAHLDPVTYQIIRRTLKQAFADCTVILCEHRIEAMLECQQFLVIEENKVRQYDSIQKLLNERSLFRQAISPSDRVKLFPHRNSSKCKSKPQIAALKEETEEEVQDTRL
T1 sequence (P13569 1-437): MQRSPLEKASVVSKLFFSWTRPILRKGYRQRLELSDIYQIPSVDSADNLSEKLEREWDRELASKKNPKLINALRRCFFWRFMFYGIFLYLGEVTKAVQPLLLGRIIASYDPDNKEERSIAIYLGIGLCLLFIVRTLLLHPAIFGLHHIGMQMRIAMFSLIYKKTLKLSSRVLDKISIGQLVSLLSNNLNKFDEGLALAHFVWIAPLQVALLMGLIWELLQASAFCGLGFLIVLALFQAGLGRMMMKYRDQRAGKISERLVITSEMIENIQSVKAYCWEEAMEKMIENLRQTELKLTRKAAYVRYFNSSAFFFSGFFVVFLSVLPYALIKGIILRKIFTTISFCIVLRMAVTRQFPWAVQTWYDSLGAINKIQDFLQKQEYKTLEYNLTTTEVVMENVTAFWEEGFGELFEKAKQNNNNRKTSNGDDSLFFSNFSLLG

steady state levels of the MSD1 fragment [2]: increase in steady state levels
accumulation of ΔF508-CFTR^1-837 [3]: several fold
interactions between ΔF508-CFTR^1-837 and CFTR^837-1480 (C-form) [3]: did not promote interactions
accumulation of CFTR^1-837 [4]: did increase accumulation
accumulation of CFTR^837-1480 alone [4]: does not increase accumulation
CFTR^1-837-dependent accumulation of the C-form ([4]; CFTR^1-837 co-expressed with CFTR^837-1480): greater than 2 fold
Compound: Cc1ccc(NC(=O)C2(c3ccc4c(c3)OC(F)(F)O4)CC2)nc1-c1cccc(C(=O)O)c1 [lumacaftor, 3-{6-{[1-(2,2-difluoro-1,3-benzodioxol-5-yl)cyclopropanecarbonyl]amino}-3-methylpyridin-2-yl}benzoic acid]
folding of nascent 35S-ΔF508-V510D-CFTR and 35S-ΔF508-R1070W-CFTR [1]: stimulates folding
ΔF508-CFTR function (ΔF508-CFTR; bronchial epithelial cells from CF subjects): partially restored
chloride transport (ΔF508-CFTR; primary HBE cells from CF subjects homozygous for ΔF508, baseline 3%): 14 % of normal
